In patent US4945114A, “Therapeutic agents containing enantiomers of propafenone” (priority 1987, dated 1990):
Where a name gives a salt, the structure may show the parent alone.

Legend:
[1] = target: T1, β2-receptor subtype (rat lung membranes, 25% of β1, 75% of β2) (Rattus norvegicus, UniProt P10608); experiment: Inhibition of specific 3H-dihydroalprenolol binding in rat lung membranes; details: 1 nM 3H-dihydroalprenolol, confidence limits in brackets, read-out: Lung Ki (competition constant)
T1 construct: rat lung membranes; from tissue; host or cells: rat lung membranes
Procedure: Two experiments were carried out with three batches.

[2] = test system: aconitine-induced arrhythmia; experiment: Antiarrhythmic action in aconitine-induced arrhythmia of the rat; assay type: in vivo; details: iv, 5 min, read-out: Antiarrhythmic effect on aconitine-induced arrhythmias ED 50%
Procedure: 2. Determination of the antiarrhythmic action in aconitine-induced arrhythmia of the rat
The experimental animals used were male Sprague-Dawley rats weighing from 180 to 300 g. Anaesthesia was effected intraperitoneally with 100 mg/kg of thiobutabarbital. To induce arrhythmias, aconitine was infused at a rate of 5 μg per kg per minute. The test substances were administered intravenously 2 minutes before the beginning of the aconitine infusion. The parameter measured was the duration of the aconitine infusion when the first arrhythmias (loss of P, ventricular extrasystoles and tachycardias) appeared in the ECG of the animals. In untreated animals, the aconitine-induced arrhythmia occurred after 3.3±0.11 minutes (n=120). The ED 50% was determined from the linear relationship between log dose (mg/kg) of the test substances and the relative prolongation of aconitine infusion duration (Δ%).

T1 sequence (P10608 whole entry): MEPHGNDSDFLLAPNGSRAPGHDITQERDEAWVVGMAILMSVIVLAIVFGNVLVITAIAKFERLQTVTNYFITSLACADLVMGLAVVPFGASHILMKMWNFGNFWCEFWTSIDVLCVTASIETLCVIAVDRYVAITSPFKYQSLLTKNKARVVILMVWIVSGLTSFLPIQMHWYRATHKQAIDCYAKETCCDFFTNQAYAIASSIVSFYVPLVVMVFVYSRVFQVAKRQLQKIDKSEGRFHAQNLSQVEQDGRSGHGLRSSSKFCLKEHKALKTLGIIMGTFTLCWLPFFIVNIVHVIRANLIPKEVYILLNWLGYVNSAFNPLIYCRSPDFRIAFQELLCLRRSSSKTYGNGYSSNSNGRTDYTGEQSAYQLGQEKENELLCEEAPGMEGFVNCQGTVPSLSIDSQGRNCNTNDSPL

In the case of CCCNCC(O)COc1ccccc1C(=O)CCc1ccccc1 (racemic) [(R,S)-propafenone, 2'-(2-hydroxy-3-propylaminopropoxy)-3-phenylpropiophenone, reference compound], the Ki [1] is reported as 32 nM and the ED50 [2] is reported as 0.724 mg/kg.

CCCNC[C@@H](O)COc1ccccc1C(=O)CCc1ccccc1 [(R)-propafenone, (R)-propafenone . HCl] was tested, and the Ki [1] was 257 nM and the ED50 [2] was 0.801 mg/kg.

In the case of CCCNC[C@H](O)COc1ccccc1C(=O)CCc1ccccc1 [(S)-propafenone, (S)-propafenone . HCl], the Ki [1] is reported as 14 nM and the ED50 [2] is reported as 0.676 mg/kg.
